US10087188B2, “Benzamide imidazopyrazine Btk inhibitors” (MERCK SHARP & DOHME CORP., priority 2014, dated 2018)

biological target: BTK enzyme (recombinant full-length BTK, hBTK) (Homo sapiens (Human), UniProt Q06187); experiment: Btk enzyme activity assay, LANCE TR-FRET; format: biochemical; details: 50 pM hBTK, 2 μM biotin-A5-peptide, 25 μM ATP; 60 minute compound & enzyme incubation; read-out: BTK binding IC50
Procedure: Btk Enzyme Activity Assay Methods
BTK enzymatic activity was determined with the LANCE (Lanthanide Chelate Excite) TR-FRET (Time-resolved fluorescence resonance energy transfer) assay. […] After 60 minutes incubation with detection reagents, reaction plates were read on a PerkinElmer EnVision plate reader using standard TR-FRET protocol.

BTK enzyme (recombinant full-length BTK, hBTK), sequence (Q06187 whole entry): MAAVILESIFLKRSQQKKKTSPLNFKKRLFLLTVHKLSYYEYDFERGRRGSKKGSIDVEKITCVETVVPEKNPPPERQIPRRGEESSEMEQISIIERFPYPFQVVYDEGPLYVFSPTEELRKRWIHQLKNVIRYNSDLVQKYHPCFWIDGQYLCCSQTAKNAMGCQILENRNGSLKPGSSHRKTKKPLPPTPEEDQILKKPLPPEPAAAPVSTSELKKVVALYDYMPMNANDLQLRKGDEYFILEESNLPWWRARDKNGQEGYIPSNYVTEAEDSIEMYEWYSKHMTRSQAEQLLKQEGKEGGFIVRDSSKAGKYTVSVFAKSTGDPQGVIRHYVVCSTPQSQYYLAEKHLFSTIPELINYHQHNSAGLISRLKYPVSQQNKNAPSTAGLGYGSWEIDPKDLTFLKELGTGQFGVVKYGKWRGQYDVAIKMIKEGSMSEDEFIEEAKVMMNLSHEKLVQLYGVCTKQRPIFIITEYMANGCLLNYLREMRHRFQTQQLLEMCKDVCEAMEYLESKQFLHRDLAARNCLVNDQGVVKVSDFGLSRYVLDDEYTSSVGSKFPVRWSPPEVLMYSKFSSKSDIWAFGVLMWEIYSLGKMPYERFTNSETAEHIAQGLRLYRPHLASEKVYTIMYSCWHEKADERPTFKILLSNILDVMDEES

| IC50 | SMILES |
| --- | --- |
| 1.7 nM | C[C@]1(C(=O)O)CCC[C@@H](c2nc(-c3ccc(C(=O)Nc4cc(C5CC5)ccn4)cc3F)c3c(N)nccn23)C1 [Example 156, (1S,3R)-3-(8-amino-1-{4-[(4-cyclopropylpyridin-2-yl)carbamoyl]-2-fluorophenyl}imidazo [1,5-a]pyrazin-3-yl)-1-methylcyclohexane-carboxylic acid] |
| 29.5 nM | Nc1nccn2c([C@H]3CCC[C@@H](C(=O)O)C3)nc(-c3ccc(C(=O)Nc4cc(C5CC5)ccn4)cc3)c12 [Example 4, (1R,3S)-3-(8-amino-1-{4-[(4-cyclopropyl-pyridin-2-yl)carbamoyl]phenyl}imidazo [1,5-a]pyrazin-3-yl)cyclohexane-carboxylic acid] |
| 8.6 nM | Nc1nccn2c([C@H]3CN(C(=O)C4(C(=O)O)CCC4)CCO3)nc(-c3ccc(C(=O)Nc4cc(C(F)(F)F)ccn4)cc3F)c12 [Example 178, 1-({(2R)-2-[8-amino-1-(2-fluoro-4-{[4-(trifluoromethyl)pyridin-2-yl]carbamoyl}phenyl)imidazo [1,5-a]pyrazin-3-yl]morpholin-4-yl}carbonyl)cyclobutane-carboxylic acid] |
| 1.7 nM | Nc1nccn2c([C@@H]3CCC[C@H](C(=O)O)C3)nc(-c3ccc(C(=O)Nc4cc(OC5CC5)ccn4)cc3)c12 [Example 12, (1S,3R)-3-[8-amino-1-(4-{[4-(cyclopropyloxy)pyridin-2-yl]carbamoyl}phenyl)imidazo [1,5-a]pyrazin-3-yl]cyclohexane-carboxylic acid] |
| 2.1 nM | Nc1nccn2c([C@@H]3CCC[C@H](C(=O)O)C3)nc(-c3ccc(C(=O)Nc4cc(C5CC5)ccn4)cc3)c12 [Example 8, (1S,3R)-3-(8-amino-1-{4-[(4-cyclopropyl-pyridin-2-yl)carbamoyl]phenyl}imidazo [1,5-a]pyrazin-3-yl)cyclohexane-carboxylic acid] |
| 2.8 nM | C[C@]1(C(=O)O)CCC[C@@H](c2nc(-c3ccc(C(=O)Nc4cc(C5CC5)ccn4)cc3)c3c(N)nccn23)C1 [Example 155, (1S,3R)-3-(8-amino-1-{4-[(4-cyclopropylpyridin-2-yl)carbamoyl]phenyl}imidazo[1,5-a]pyrazin-3-yl)-1-methylcyclohexane-carboxylic acid] |
| 1.6 nM | COc1cc(C(=O)Nc2cc(C(F)(F)F)ccn2)ccc1-c1nc([C@@H]2CCC[C@H](C(=O)O)C2)n2ccnc(N)c12 [Example 11, (1S,3R)-3-[8-amino-1-(2-methoxy-4-{[4-(trifluoromethyl)pyridin-2-yl]carbamoyl}phenyl)imidazo [1,5-a]pyrazin-3-yl]cyclohexane-carboxylic acid] |

test system: HeLa cells; experiment: [3H] Adenosine uptake assay; format: cell-based; details: Homo sapiens, HeLa, accumulation of tritiated adenosine into HeLa cells; compound concentration range 10 μM to 0.032 nM; read-out: ADU inhibition IC50 (adenosine uptake inhibition potency)
Procedure: Compounds are also screen in an adenosine uptake functional cellular assay using the protocol described below:
[^3H] Adenosine Uptake Assay Methods
Adenosine uptake activity was determined by monitoring the accumulation of tritiated adenosine into HeLa cells (ATCC catalog #CCL-2) using a PMT-based radiometric detection instrument. […] These cells were incubated overnight at 37° C. in a humidified atmosphere with 5% (v/v) CO2. After this time the growth medium was removed and replaced with 40 μL assay medium comprising: Hanks balanced salts solution (HBSS; Thermo Fisher Catalog #SH30268.01)+5% (v/v) FBS. Compound stock solutions in DMSO were diluted in assay medium to 2.5× final compound concentration maintaining a constant DMSO concentration of 0.25% (v/v). 40 μL of compound in assay medium was dispensed into individual wells of the Cytostar-T plates and the plates were incubated for 30 minutes under ambient laboratory conditions. Following this incubation, 20 μL of 500 nM[^3H] adenosine (American Radiolabeled Chemicals Inc. Catalog #ART0287) in assay medium was added and incubated for a further 60 minutes under ambient laboratory conditions. The amount of radiolabel accumulation was then determined using a Perkin Elmer Topcount NXT microplate reader. In brief, HeLa cells adhere to the bottom of the Cytostar-T plate, uptake of [^3H]adenosine into these cells brings the radiolabel into sufficient proximity to excite the scintillant in the base of the plates. These events are captured by single PMT, time-resolved coincidence counting. IC50 values were determined by 4 parameter robust fit of counts per second values vs. (Log10) compound concentrations.

| IC50 | SMILES |
| --- | --- |
| 7.98 µM | Nc1nccn2c([C@@H]3CC[C@@H](CC(=O)O)C3)nc(-c3ccc(C(=O)Nc4cc(C(F)(F)F)ccn4)cc3)c12 [Example 55, {(1R,3R)-3-[8-amino-1-(4-{[4-(trifluoromethyl)pyridin-2-yl]carbamoyl}phenyl)imidazo[1,5-a]pyrazin-3-yl]cyclopentyl}acetic acid] |

same assay, conditions: Homo sapiens; accumulation of tritiated adenosine into HeLa cells; compound concentration range 10 μM to 0.032 nM; read-out: ADU inhibition IC50 (adenosine uptake inhibition potency)

| SMILES | IC50 |
| --- | --- |
| Nc1nccn2c([C@H]3C[C@@H]4[C@H](C3)[C@H]4C(=O)O)nc(-c3ccc(C(=O)Nc4cc(C(F)(F)F)ccn4)cc3)c12 [Example 139, (1R,3R,5S,6r)-3-[8-amino-1-(4-{[4-(trifluoromethyl)pyridin-2-yl]carbamoyl}phenyl)imidazo[1,5-a]pyrazin-3-yl]bicyclo[3.1.0] hexane-6-carboxylic acid] | 10 µM |
| Nc1nccn2c1c(-c1ccc(C(=O)Nc3cc(C(F)(F)F)ccn3)cc1)nc2[C@H]1CC[C@@H](C(=O)O)CC1 [Example 158, cis-4-[8-amino-1-(4-{[4-(trifluoromethyl)pyridin-2-yl]carbamoyl}phenyl)imidazo[1,5-a]pyrazin-3-yl]cyclohexane-carboxylic acid] | 10 µM |
| CC(C)[C@H]1CC[C@@H](c2nc(-c3ccc(C(=O)Nc4cc(C(F)(F)F)ccn4)cc3)c3c(N)nccn23)C[C@H]1C(=O)O [Example 99, (1R,2R,5R)-5-[8-amino-1-(4-{[4-(trifluoromethyl)pyridin-2-yl]carbamoyl}phenyl)imidazo[1,5-a]pyrazin-3-yl]-2-(1-methylethyl) cyclohexane-carboxylic acid] | 2.51 µM |
| Nc1nccn2c([C@H]3CC[C@@H](C(=O)O)C3)nc(-c3ccc(C(=O)Nc4cc(C(F)(F)F)ccn4)cc3)c12 [Example 14, (1R,3S)-3-(8-amino-1-(4-((4-(trifluoromethyl)pyridin-2-yl)carbamoyl)phenyl)imidazo[1,5-a]pyrazin-3-yl)cyclopentanecarboxylic acid] | 2.5 µM |
| C[C@@]1(C(=O)O)CC[C@H](c2nc(-c3ccc(C(=O)Nc4cc(C(F)(F)F)ccn4)cc3)c3c(N)nccn23)C1 [Example 40, (1R,3S)-3-[8-amino-1-(4-{[4-(trifluoromethyl)pyridin-2-yl]carbamoyl}phenyl)imidazo[1,5-a]pyrazin-3-yl]-1-methylcyclopentane-carboxylic acid] | 5.28 µM |
| Nc1nccn2c([C@@H]3C[C@@H]4[C@H](C3)[C@@H]4C(=O)O)nc(-c3ccc(C(=O)Nc4cc(C(F)(F)F)ccn4)cc3)c12 [Example 124, (1R,3r,5S,6s)-3-[8-amino-1-(4-{[4-(trifluoromethyl)pyridin-2-yl]carbamoyl}phenyl)imidazo[1,5-a]pyrazin-3-yl]bicyclo[3.1.0] hexane-6-carboxylic acid] | 6.12 µM |
| CC(C)[C@]1(C(=O)O)CCC[C@@H](c2nc(-c3ccc(C(=O)Nc4cc(C(F)(F)F)ccn4)cc3)c3c(N)nccn23)C1 [Example 89, (1S,3R)-3-[8-amino-1-(4-{[4-(trifluoromethyl)pyridin-2-yl]carbamoyl}phenyl)imidazo[1,5-a]pyrazin-3-yl]-1-(1-methylethyl) cyclohexane-carboxylic acid] | 3.41 µM |
| Nc1nccn2c([C@@H]3C[C@@H]4[C@H](C3)[C@H]4C(=O)O)nc(-c3ccc(C(=O)Nc4cc(C(F)(F)F)ccn4)cc3)c12 [Example 125, (1R,3R,5S,6r)-3-[8-amino-1-(4-{[4-(trifluoromethyl)pyridin-2-yl]carbamoyl}phenyl)imidazo[1,5-a]pyrazin-3-yl]bicyclo[3.1.0]hexane-6-carboxylic acid] | 2.69 µM |
| CC(C)[C@]1(C(=O)O)CC[C@H](c2nc(-c3ccc(C(=O)Nc4cc(C(F)(F)F)ccn4)cc3)c3c(N)nccn23)C1 [Example 49, (1S,3S)-3-[8-amino-1-(4-{[4-(trifluoromethyl)pyridin-2-yl]carbamoyl}phenyl)imidazo[1,5-a]pyrazin-3-yl]-1-(1-methylethyl) cyclopentane-carboxylic acid] | 0.922 µM |
| C[C@]1(C(=O)O)CCC[C@@H](c2nc(-c3ccc(C(=O)Nc4cc(C(F)(F)F)ccn4)cc3)c3c(N)nccn23)C1 [Example 154, (1S,3R)-3-[8-amino-1-(4-{[4-(trifluoromethyl)pyridin-2-yl]carbamoyl}phenyl)imidazo[1,5-a]pyrazin-3-yl]-1-methylcyclohexane-carboxylic acid] | 10 µM |
| Nc1nccn2c([C@H]3C[C@@H]4[C@H](C3)[C@@H]4C(=O)O)nc(-c3ccc(C(=O)Nc4cc(C(F)(F)F)ccn4)cc3)c12 [Example 140, (1R,3r,5S,6s)-3-[8-amino-1-(4-{[4-(trifluoromethyl)pyridin-2-yl]carbamoyl}phenyl)imidazo[1,5-a]pyrazin-3-yl]bicyclo[3.1.0] hexane-6-carboxylic acid] | 10 µM |
| C[C@]1(C(=O)O)CC[C@@H](c2nc(-c3ccc(C(=O)Nc4cc(C(F)(F)F)ccn4)cc3)c3c(N)nccn23)C1 [Example 37, (1S,3R)-3-[8-amino-1-(4-{[4-(trifluoromethyl)pyridin-2-yl]carbamoyl}phenyl)imidazo[1,5-a]pyrazin-3-yl]-1-methylcyclopentane-carboxylic acid] | 8.55 µM |
| CC(C)[C@]1(C(=O)O)CC[C@@H](c2nc(-c3ccc(C(=O)Nc4cc(C(F)(F)F)ccn4)cc3)c3c(N)nccn23)C1 [Example 46, (1S,3R)-3-[8-amino-1-(4-{[4-(trifluoromethyl)pyridin-2-yl]carbamoyl}phenyl)imidazo[1,5-a]pyrazin-3-yl]-1-(1-methylethyl) cyclopentane carboxylic acid] | 4 µM |
| CC(C)[C@@]1(C(=O)O)CC[C@H](c2nc(-c3ccc(C(=O)Nc4cc(C(F)(F)F)ccn4)cc3)c3c(N)nccn23)C1 [Example 48, (1R,3S)-3-[8-amino-1-(4-{[4-(trifluoromethyl)pyridin-2-yl]carbamoyl}phenyl)imidazo[1,5-a]pyrazin-3-yl]-1-(1-methylethyl) cyclopentane-carboxylic acid] | 3.76 µM |
